Measured values: patent publication US20260137696A1, “Compositions Comprising an Inhibitor of Galectin-3” (University of Liverpool, priority 2023, published 2026)

Columns and labels:
SW620^Gal3− cells = assay: Tumour growth and metastasis in chick chorioallantoic membrane (CAM) model; assay type: in vivo, chicken embryos; conditions: 24 μM; Galectin-3-suppressed SW620^Gal3−
Method: (§1) Effect of the compound of Formula I on tumour formation, growth and metastasis of SW620Gal3+ and SW620Gal3− cells was assessed in the chick chorioallantoic membrane (CAM) model. Galectin-3-expressing SW620^Gal3+ and Galectin-3-suppressed SW620^Gal3− cells were transfected with pHIV-Luc-ZsGreen vector and engrafted to the CAM on embryonic day 7. The compound of Formula I (24 μM) was injected into the allantoic cavity on the following day and the tumour formation and growth was analysed by fluorescence microscopy (FIG. 10A) and IVIS imaging (FIGS. 10B-FIG. 10D) on embryonic day 14. Seventy percent eggs grafted with Galectin-3-expressing SW620^Gal3+ cells formed various sized tumours in the absence of Formula I while the number of eggs formed in the Formula I treated group was reduced to 30%.
as §1, with “SW620Gal3−” for “SW620Gal3− cells”, “SW620^Ga13−” for “SW620^Gal3−”
(§2) Fertilised white leghorn chicken eggs were obtained from Lees Lane Poultry (Wirral, UK). The eggs were windowed on embryonic Day 3 with 4 ml albumin removed. The eggs were incubated at 37° C. in 35-40% humidity until embryonic day 7. ZsGreen- and luciferase-expressing SW620Gal3+ and SW620Gal3− cells (2.5×10^6) were then embedded on the chorioallantoic membrane (CAM). On embryonic Days 8 and 11, the inhibitors (24 μM) or control DMSO/PBS were injected into the allantoic cavity. The eggs were incubated until embryonic Day 14 The eggs were imaged using a Microscope as well as by IVIS. The embryos were then immediately decapitated. Organs were examined under fluorescence microscope for presence of ZsGreen-labelled tumour cells. Ethical approval for the experiments using chick embryos up to embryonic Day 14 was obtained from the Liverpool Animal Welfare and Ethical Review Body.

SW620^Gal3+ cells = assay: as above; assay type: in vivo, chicken embryos
Method: as §1
as §1, with “SW620Gal3−” for “SW620Gal3− cells”, “SW620^Ga13−” for “SW620^Gal3−”
as §2

[1] = system: THP-1 differentiated macrophages; assay: Galectin-3-induced pro-inflammatory cytokine secretion, cytokine ELISA; assay type: cell-based; conditions: Galectin-3 10 μg/ml, various concentrations
Method: Secretion of pro-inflammatory cytokines IL-6 (FIG. 7A), IL-1β (FIG. 7B) and TNFα (FIG. 7C) from THP-1 differentiated macrophages was analysed in the absence or presence of Galectin-3 (10 μg/ml) and various concentrations of the compound of Formula I by cytokine ELISA.
THP-1 monocytes (5×10^5 cells/ml) were differentiated into macrophages by incubation with 10 ng/ml Phorbol 12-myristate-13-acetate (PMA) for 48 h at 37° C. The differentiated cells were washed gently with medium before introduction of fresh medium without or with 10 μg/ml Galectin-3, and/or different concentrations of the inhibitors for 24 h at 37° C. The culture medium was collected and the concentrations of IL-6, TNFα and IL1β in the medium were measured by IL-6, TNFα and IL1β ELISA kits according to the manufacture's protocols.

SW620 cells = assay: Tumour growth in mice (subcutaneous graft); assay type: in vivo, Balb/c nude mice; conditions: 5 mg/kg subcutaneously, 3 times a week for 4 weeks
Method: (§3) The compound of Formula I effect on tumour growth was assessed in Balb/c nude mice. Luciferase-transfected human colon cancer SW620 cells were grafted subcutaneously to mice and the compound of Formula I (5 mg/kg) was administrated subcutaneously, 3 times a week for 4 weeks. Tumour growths were monitored by IVIS imaging (FIG. 11A) and also measured by clipers.
as §3, with “imaging” for “imaging (FIG. 11A)”
Female Balb/c nude mice aged 6-7 weeks were purchased from Charles River Laboratories (Margate, UK) and maintained in specific pathogen-free conditions with a 12:12 hour light:dark cycle. All animal studies were conducted with UK Home Office and local ethics committee approval.
Sixteen 6˜7 weeks old mice were randomly divided into two equal A and B groups (8 mice/group). The animals were injected s.c. with 2×10^6 ZsGreen- and luciferase-expressing SW620Gal3+ cells. […] Tumour size were measured with callipers every two days. […]

With `C[C@H]1COc2c(N3CCN(C)CC3)c(F)cc3c(=O)c(C(=O)NNc4ccc(N)cc4)cn1c23` [Formula I] the “tumour formation or growth” value (SW620^Gal3− cells) was “no effect”, the “number of eggs that formed tumours” value (SW620^Gal3+ cells; 24 μM into allantoic cavity, embryonic day 14, 70% without Formula I) was 30% and the “reduction of luminescence intensity in the tumours” value (SW620^Gal3+ cells; 24 μM, IVIS imaging, embryonic day 14, vs group without Formula I) was 66%. The “tumours showing metastasis to other organs” value (SW620^Gal3+ cells; 24 μM, 25% in the absence of Formula I) was “none”, the “Galectin-3-induced secretion of IL-1β” value [1] was “dose-dependent inhibition” and the “Galectin-3-induced secretion of IL-6” value [1] was “dose-dependent inhibition”. For the same compound, the “Galectin-3-induced secretion of TNFα” value [1] was “dose-dependent inhibition” and the “inhibition of tumour growth” value (SW620 cells) was 51%.
